From article PMC7539967, “The Plasmodium falciparum eIK1 kinase (PfeIK1) is central for melatonin synchronization in the human malaria parasite. Melatotosil blocks melatonin action on parasite cell cycle” (Journal of Pineal Research, 2020)
Entries after “also recorded” stand apart in the source; their conditions may differ. Like-named read-outs stand apart in the source and are kept apart here.

How the values were obtained:
[1] = system: Plasmodium falciparum 3D7; test: In vitro growth assay and flow cytometry analysis (72 h), 3D7; format: cell-based; conditions: for IC50: Plasmodium falciparum
Procedure: (§1) Red blood cells infected with P. falciparum 3D7 or PfeIK1^‐ (iRBC) with 0.3 % initial parasitemia and 1% hematocrit were incubated with different concentrations of compounds Tripbenz (4), Triptosil (5), Triptiofen (6), Tripfuroila (7), and Tripcicloexil (8) ranging from 0.107 to 110 µM, and compounds Melatobenz (9), Melatotosil (10), Melatofuroila (11), and Melatocicloexil (12) ranging from 0.1 to 100 µM for 72 hours at 37°C under mixture of gases. The control group was treated with solvent dimethyl sulfoxide (DMSO) (v/v), with the highest concentration of solvent 0.14%. Chloroquine was used as positive control with concentrations ranging from 0.244 to 250 nM. Parasitemia was determined from dot plots (side scatter versus fluorescence) of at least 10^3 cells acquired on a FACSCalibur flow cytometer using […] software (Becton Dickinson) or an Accuri C6 flow cytometer (Becton Dickinson). Initial gating was carried out with unstained, uninfected erythrocytes to account for erythrocyte auto fluorescence. The concentration responsible for 50% inhibition (IC50) was determined from the compound concentration‐response curve determined with the software GraphPad Prism 6.
(§2) For assays with antimalarials, iRBC were incubated with different concentrations of Atovaquone ranging from 0.02 to 24 nM, or Artemisinin 0.15‐160 nM.
(§3) After 72 hours, iRBC were stained with nucleic acid marker SYBR Green I (1X) (Invitrogen) and mitochondria marker based on membrane potential MitoTracker Deep Red (50 nM) (Invitrogen), and incubated for 20 minutes at 37°C. Final parasitemia was obtained by flow cytometer using a BD Accuri C6 Flow Cytometer, collecting 10^4 cells. Parasitemia was determined by dot plots using FlowJo 5 software.
(§4) At least three independent experiments were performed in triplicate to calculate the IC50 values for each drug.

P. falciparum PfeIK1^‐ [2] = test: In vitro growth assay and flow cytometry analysis (72 h), PfeIK1 knockout; format: cell-based, Plasmodium falciparum; conditions: for IC50: Plasmodium falciparum
Procedure: as §1, §2, §3, §4

P. falciparum PfeIK1^‐ [3] = test: Effect of compounds on melatonin action on parasitemia, PfeIK1 knockout; format: cell-based, Plasmodium falciparum; conditions: 500 nM compound + 100 nM melatonin, 48 h, normalized to control
Procedure: (§5) To evaluate the effect of the compounds on melatonin action on parasitemia, iRBC were incubated with 500 nM of compounds for 10 minutes and then along with 100 nM of melatonin for 48 hours at 37°C under mixture of gases.
(§6) After 48 hours, iRBC were double‐stained ^34 with nucleic acid marker SYBR Green I (1X) and mitochondria marker, based on membrane potential, MitoTracker Deep Red (50 nM), and incubated for 20 minutes at 37°C.
(§7) Final parasitemia was obtained by flow cytometer using an Accuri C6 flow cytometer (Becton Dickinson), collecting 10^4 cells. Parasitemia was determined by dot plots using FlowJo 5 software.

[4] = system: Plasmodium falciparum 3D7; test: Effect of indole compounds in parasitemia (48 h), 3D7; format: cell-based; conditions: 3D7, 500 nM compound; for activity at 0.5 µM: Plasmodium falciparum, read-out: final parasitemia normalized to control
Procedure: (§8) Red blood cells infected (iRBC) with 3D7 or PfeIK1^‐ (iRBC) with 1% initial parasitemia and 2% hematocrit were incubated with 500 nM of the synthetic indole compounds or 100 nM Melatonin for 48 hours at 37°C under mixture of gases. ^12 The control group received 0.0013% of solvent dimethyl sulfoxide (DMSO).
as §6, §7

P. falciparum PfeIK1^‐ [5] = test: Effect of indole compounds in parasitemia (48 h), PfeIK1 knockout; format: cell-based; conditions: Plasmodium falciparum, read-out: final parasitemia normalized to control
Procedure: as §8, §6, §7

[6] = system: P. falciparum GCaMP3 parasites; test: Calcium assay in transgenic PfGCaMP3 parasites; format: cell-based, Plasmodium falciparum; conditions: 500 nM; for cytosolic calcium rise: PfGCaMP3; for Fmax/F0 (maximum fluorescence normalized to baseline): PfGCaMP3, 120 cells
Procedure: Calcium assays were performed using the transgenic P. falciparum GCaMP3 parasites. ^37 PfGCaMP3 cultures were synchronized at least three times with 5% sorbitol before starting the experiments, and parasitemia was maintained between 5% and 8%. PfGCaMP3 parasites were cultivated with 10 nM/mL of WR for selection. Parasites were isolated with saponin (0.016%) and collected by centrifugation 8000 rpm, subsequently washed twice with buffer M, and allowed to settle in a four‐well plate for microscope coated with poly‐L‐lysine for 30 minutes at 37°C with 5% CO2 in buffer M ([…], 5.4 mM KCl, 0.8 mM MgSO4, 5.5 mMD‐glucose, 50 mM MOPS, and 2 mM CaCl2, pH 7.2). The compounds used for measuring calcium assays were as follows: Melatotosil and Triptiofen solubilized in DMSO.
Images were captured using a Nikon Eclipse Ti2 inverted microscope with FITC filter. Images were collected every 10 seconds for 5 minutes, with NIS‐Elements Ar 5.11.01 from Nikon using 60× lens. All experiments were performed at least three independent times in duplicates.

[7] = system: Plasmodium falciparum 3D7; test: Effect of compounds on melatonin action on parasitemia, 3D7; format: cell-based; conditions: 3D7, 500 nM compound + 100 nM melatonin, 48 h
Procedure: as §5, §6, §7

[8] = system: Human Embryonic Kidney cells (HEK293); test: Cytotoxicity Assay in HEK293 cells (MTT); format: cell-based; conditions: 0.107 to 110 µM, 72 h
Procedure: To evaluate toxicity of the new indole compounds in mammalian cells, Human Embryonic Kidney cells (HEK293) were maintained in 75 cm^2 culture flasks (Greiner Bio‐One) at 37°C, 5%CO2 in […] (DMEM), supplemented with 10% fetal bovine serum, NaHCO33.7 g/L (Sigma), 100 U/mL penicillin/, and 100 μg/mL streptomycin in monolayers.
Cells were plated in flat‐bottom 96‐well plates in a density of 10^4 cells per well and incubated for 24 hours in 150 µL media at 37°C, 5%CO2. Cells were then treated with different concentrations of each compound, ranging from 0.107 to 110 µM in 200 µL DMEM for 72 hours at 37°C and 5%CO2. Cells treated with DMSO (v/v) with the highest concentration of solvent 0.14% were used as control.
After incubation, 40 µL of MTT reagent (solution 5 mg/mL in PBS) was added to each well, and cells were incubated for further 3 hours at 37°C and 5% CO2. The media were removed and 100 µL of DMSO was added in each well. Plates were agitated in a shaker for 10 minutes to dissolve precipitates. Absorbance was read at 570 nm in a FlexStation 3 (Molecular Devices). Six experiments were performed independently in triplicates.

P. falciparum (3D7) = test: Microscopy evaluation of blood-stage development (Giemsa smears); format: cell-based, Plasmodium falciparum; conditions: for parasites in segmented schizont stage: 48 h, 3D7, Giemsa smears
Procedure: Plasmodium falciparum (3D7) cultures were synchronized by three rounds of 5% sorbitol treatment for 1 hour. ^35 Parasites at ring stage with initial 1% parasitemia and 2% hematocrit were incubated with Triptiofen (6) at concentrations of 1 and 10 µM in 24‐well plates for 48 hours at 37°C under mixture of gases. The DMSO solvent (0.1%) was used as a control. Smears of infected erythrocytes stained with Giemsa were performed at regular intervals (0, 12, 24, 36 and 48 hours after treatment). ^36 Parasite images were acquired under a light microscope (Zeiss) with 100× magnification to assess the parasite's blood development stages. The parasitemia at the end of the experiment was quantified for comparison between groups. Three independent experiments were performed in triplicate. Data were analyzed using software GraphPad Prism 6.

[9] = 72 h, parasitemia by flow cytometry, wild-type 3D7, read-out: IC50 3D7 strain (antimalarials)
[10] = read-out: IC50 PfelK1^‐ strain (antimalarials)
[11] = 3D7, 72 h, read-out: IC50 (µM) 3D7 strain
[12] = read-out: IC50 (µM) PfelK1^‐ strain

| Structure (SMILES) | IC50 [1, 11] | final parasitemia, compound along with melatonin (P. falciparum PfeIK1^‐ [3]) | activity at 0.5 µM [4] | activity at 0.5 µM (P. falciparum PfeIK1^‐ [5]) | IC50 (P. falciparum PfeIK1^‐ [2]; [12]) | ability to abolish the increase in parasitemia triggered by melatonin [7] | decrease in parasitemia compared to treatment with the hormone only [7] | parasitemia normalized to control, compound along with melatonin [7] | toxicity in HEK293 cells [8] | also measured |
| --- | --- | --- | --- | --- | --- | --- | --- | --- | --- | --- |
| C[C@@H]1CC[C@H]2[C@@H](C)C(=O)O[C@@H]3O[C@@]4(C)CC[C@@H]1[C@]32OO4 [Artemisinin, reference compound] | – | – | – | – | – | – | – | – | – | IC50 [1, 9]: 0.0137 µM; IC50 (P. falciparum PfeIK1^‐ [2]; [10]): 0.0188 µM |
| O=C1C(O)=C([C@H]2CC[C@H](c3ccc(Cl)cc3)CC2)C(=O)c2ccccc21 [Atovaquone, reference compound] | – | – | – | – | – | – | – | – | – | IC50 [1, 9]: 0.0004 µM; IC50 (P. falciparum PfeIK1^‐ [2]; [10]): 0.00047 µM |
| CCN(CC)CCCC(C)Nc1ccnc2cc(Cl)ccc12 (stereo not shown) [Chloroquine, reference compound] | – | – | – | – | – | – | – | – | – | IC50 ([1]; 3D7, 72 h, read-out: IC50 3D7 strain (antimalarials)): 0.0099 µM |
| COc1ccc2[nH]cc(CCNS(=O)(=O)c3ccccc3)c2c1 [Melatobenz (9), N‐(2‐(5‐methoxy‐1H‐indol‐3‐yl)ethyl)benzenesulfonamide] | 38.5 ± 1.57 µM | 105.0 ± 1.97% | 102% | 100% | 57.8 µM | – | – | – | – | – |
| COc1ccc2[nH]cc(CCNC(=O)C3CCCCC3)c2c1 [Melatocicloexil (12), N‐(2‐(5‐methoxy‐1H‐indol‐3‐yl)ethyl)cyclohexanecarboxamide] | 35.2 ± 4.14 µM | 107.0 ± 1.37% | 104% | 98.3% | 47.6 ± 6.43 µM | – | – | – | – | – |
| COc1ccc2[nH]cc(CCNC(=O)c3ccco3)c2c1 [Melatofuroila (11), N‐(2‐(5‐methoxy‐1H‐indol‐3‐yl)ethyl)furan‐2‐carboxamide] | 30.9 ± 4.92 µM | 99.78 ± 2.03% | 102% | 97.1% | 31.9 ± 0.46 µM | – | – | – | – | – |
| COc1ccc2[nH]cc(CCNS(=O)(=O)c3ccc(C)cc3)c2c1 [Melatotosil (10), N‐(2‐(5‐methoxy‐1H‐indol‐3‐yl)ethyl)‐4‐methylbenzenesulfonamide] | – | 106.2 ± 1.55% | – | 97.5% | – | able to abolish | 11.69% | 98.07% | – | cytosolic calcium rise [6]: elicits a calcium rise; Fmax/F0 (maximum fluorescence normalized to baseline) [6]: 1.21 ± 0.01; IC50 (µM) 3D7 strain ([1]; 72 h, parasitemia by flow cytometry, wild-type 3D7): without antimalarial activity; also recorded: No activity; increase in parasitemia compared to control group [4]: 10%; IC50 (µM) PfelK1^‐ strain (P. falciparum PfeIK1^‐ [2]; parasitemia by flow cytometry, PfeIK1 knockout): No activity |
| O=S(=O)(NCCc1c[nH]c2ccccc12)c1ccccc1 [Tripbenz (4), N‐(2‐(1H‐indol‐3‐yl) ethyl)benzenesulfonamide] | 18.7 ± 2.5 µM | – | 100% | 95.6% | 36.8 ± 3.44 µM | – | – | – | no toxicity | – |
| O=C(NCCc1c[nH]c2ccccc12)C1CCCCC1 [Tripcicloexil (8), N‐(2‐(1H‐indol‐3‐yl)ethyl)cyclohexanecarboxamide] | 28 ± 4.07 µM | 105.5 ± 0.91% | 102% | 101% | 37.6 ± 2.72 µM | – | – | – | no toxicity | – |
| O=C(NCCc1c[nH]c2ccccc12)c1ccco1 [Tripfuroila (7), N‐(2‐(1H‐indol‐3‐yl)ethyl)furan‐2‐carboxamide] | 17.1 ± 2.6 µM | 102.3 ± 1.53% | 101% | 98.5% | 23.6 ± 2.2 µM | able to abolish | 11.25% | 98.52% | no toxicity | – |
| O=C(NCCc1c[nH]c2ccccc12)c1ccc(Br)s1 [Triptiofen (6), N‐(2‐(1H‐indol‐3‐yl) ethyl)‐5‐bromothiophene‐2‐carboxamide] | 9.76 ± 0.6 µM | 104.1 ± 1.87% | 99.8% | 98.7% | 11.8 ± 0.6 µM | able to abolish | 10% | 100.1% | no toxicity | parasites in segmented schizont stage (P. falciparum (3D7); 1 µM): 1.33 ± 0.33; parasites in segmented schizont stage (P. falciparum (3D7); 10 µM): 2.22 ± 0.32; number of parasites compared to control (P. falciparum (3D7); 1 and 10 µM, starting at 36 hours, 3D7): significantly reduces; cytosolic calcium rise [6]: does not trigger a significant cytosolic calcium rise; Fmax/F0 (maximum fluorescence normalized to baseline) [6]: 1.11 ± 0.008 |
| Cc1ccc(S(=O)(=O)NCCc2c[nH]c3ccccc23)cc1 [Triptosil (5), N‐(2‐(1H‐indol‐3‐yl)ethyl)‐4‐methylbenzenesulfonamide] | 19.8 ± 5.33 µM | 105.4 ± 2.05% | 100% | 99.3 ± 2.18% | 30.6 ± 1.55 µM | able to abolish | 9.7% | 100% | no toxicity | – |
